# Legend:
# [1] = tested on: Caco-2:HT29-MTX E12 coculture tubules; assay: Image based analysis of SNAC induced semaglutide transport; format: in vitro ADME, human
# From the text: semaglutide (purple) and FITC-dextran (green). Scale bar is 500 µm. Data represent the mean
# of at least two biological replicates per condition.
# [2] = in vivo; cited from earlier work
# From the text: page 15: Supplementary Table 4. Comparison of apparent permeability in chips using mono-and coculture tubules and Transwell system of 12 model drugs.
# [3] = cited from earlier work
# From the text: page 17: Supplementary Table 5. Direct statistical comparison of drug transport in Transwells, mono-and coculture tubules of 12 model drugs using an unpaired t-test.
# [4] = tested on: Caco-2 monolayers (Transwell); assay: Lucifer Yellow leakage after drug exposure, Transwell; details: 100 µM LY co-applied, after 2 h of exposure to 10 µM drug, Caco-2 Transwell
# [5] = tested on: Caco-2:HT29-MTX E12 coculture tubules (chip); assay: Lucifer Yellow leakage after drug exposure, chip coculture; details: 100 µM LY co-applied, after 2 h of exposure to 10 µM drug
# [6] = tested on: Caco-2 monoculture tubules (chip); assay: Lucifer Yellow leakage after drug exposure, chip monoculture; details: 100 µM LY co-applied, after 2 h of exposure to 10 µM drug
# [7] = tested on: Caco-2 monolayers (Transwell); assay: In vitro drug absorption study, Transwell Caco-2 monolayer, Papp by LC-MS; details: Caco-2 Transwell, 19-21 days culture, apical pH 6.5 / basolateral pH 7.4 (TB, 10 mM HANKS/HBSS), 10 µM drug in 0.1% DMSO, 2 h, 37°C, static, mean ± SEM, at least three biological replicates
# [8] = tested on: Caco-2:HT29-MTX E12 coculture tubules (chip); assay: In vitro drug absorption study, OrganoPlate chip coculture tubules, Papp by LC-MS; details: OrganoPlate Caco-2:HT29-MTX E12 6:1 coculture tubules, day 4, A-B, apical pH 6.5 / basolateral pH 7.4, 10 µM drug in 0.1% DMSO, 2 h, 37°C, constant flow, mean ± SEM, at least three biological replicates
# [9] = tested on: Caco-2 monoculture tubules (chip); assay: In vitro drug absorption study, OrganoPlate chip monoculture tubules, Papp by LC-MS; details: OrganoPlate Caco-2 monoculture tubules, day 4, A-B, apical pH 6.5 / basolateral pH 7.4, 10 µM drug in 0.1% DMSO, 2 h, 37°C, constant flow, mean ± SEM, at least three biological replicates
# [10] = tested on: Caco-2:HT29-MTX E12 coculture tubules; assay: Live cell imaging of cellular uptake and intracellular localization in coculture tubules; format: cell-based, human
# Protocol: Spinning disc (SD) confocal microscopy was performed on a Nikon Ti2 inverted microscope equipped with a Yokogawa CSU-W1 module and a Photometrics Prime 95B sCMOS camera was used for all experiments (excl. Image-based TAT transport). The set-up includes four excitation lasers 405/488/561/638 nm with 442/42, 520/28 BrightLine HC filters and 600/50 ET, 700/75 ET bandpass filters. For this work, a set of CFI Plan Apochromat Lambda objectives were used: ×4/0.2, 20x/0.75, 60x/1.4 and 100x/1.45. For image-based transport experiments, epi-fluorescence microscopy was performed using a Nikon Eclipse Ti2 microscope equipped with an LED source (CoolLED), a dual-band filter cube (AHF, Excitation 455–489 nm, 557–588 nm; Emission 506–542 nm, 605–660 nm) and a Photometrics Evolve 512 electron-multiplying charge-coupled device camera was used (10x N.A. 0.30).
# Here, the cells were counterstained with Hoechst (H1399, Thermo Fischer, 10 μg ml^−1) and incubated for 1 h at 37°C, 5% CO2, washed with PBS and images were acquired using SD confocal microscopy with 488 nm laser and 520/28 BrightLine HC filters for detecting FITC-labelled TAT and the 405 nm laser and 442/42 BrightLine HC filter for acquiring Hoechst. […] The transport of TAT was tracked over 2 h, acquiring time lapse images every 30 s using epi-fluorescence microscopy (see Imaging modalities). […]
# [11] = tested on: Caco-2:HT29-MTX E12 coculture tubules; assay: Barrier integrity monitored by co-applied TRITC-dextran (TD) during peptide transport; format: cell-based, human; details: INS chips with and without TAT
# Protocol: Here, the cells were counterstained with Hoechst (H1399, Thermo Fischer, 10 μg ml^−1) and incubated for 1 h at 37°C, 5% CO2, washed with PBS and images were acquired using SD confocal microscopy with 488 nm laser and 520/28 BrightLine HC filters for detecting FITC-labelled TAT and the 405 nm laser and 442/42 BrightLine HC filter for acquiring Hoechst. The cell tubules exposed to TAT/INS (24 µM/50 μM, IS1-AF647-1, Nanocs) were stained with above mentioned cellular dyes and CellMask-green (C37608, Thermo Fisher, 1:500) for 30 min on ice after 3 h of incubation. The transport of TAT was tracked over 2 h, acquiring time lapse images every 30 s using epi-fluorescence microscopy (see Imaging modalities). […] To simultaneously monitor the barrier integrity TD (0.5 mg ml^−1) was co-applied to the chips and measured in parallel to TAT. For the quantification of both TAT, INS and TD transport across the cell barrier, calibration curves were established. […]
# Next we used the platform to study the barrier transport kinetics of TAT. We performed whole-chip real-time live cell imaging, to quantify the concentration of TAT transported across the coculture cell layer and reaching the receiving channel (Figure 6B). […] Both the FITC and TRITC channels were recorded for each tubular system every 30 s for a total of 2.5 h. […]
# [12] = tested on: Caco-2:HT29-MTX E12 coculture tubules; assay: Image-based real-time quantification of TAT and TAT/INS transport across coculture tubules; details: 50 µM INS, whether or not TAT (24 µM) was present, over 3 h, n = 3
# Protocol: We performed whole-chip real-time live cell imaging, to quantify the concentration of TAT transported across the coculture cell layer and reaching the receiving channel (Figure 6B). […] Both the FITC and TRITC channels were recorded for each tubular system every 30 s for a total of 2.5 h. […] A calibration experiment where known concentrations of TAT or TD were added to a chip without cells allowed us to convert the measured intensities to actual concentration in μM and mg mL^−1 respectively (Supplementary Figure S5). […]
compound,measurement,setting,value
"O=C([O-])CCCCCCCNC(=O)c1ccccc1O.[Na+] [SNAC, salcaprozate sodium]",Effect on cell layer (micrographs),[1]; 40 mM SNAC,partial removal of cell layer
same,Effect on cell layer,"[1]; SNAC 20 mM or 40 mM with semaglutide-Cy3 5 µM, approx. 4 h, bright field and dextran",irreversible damage to the cell layer
CC(C)(C)NCC(O)c1cc(O)cc(O)c1 (centres unmarked) [Terbutaline],FA in human % (fraction absorbed in human),[2],44%
same,Transport route,[3],Paracellular
same,Lucifer Yellow leakage (%) Transwell,[4],0.02%
same,Lucifer Yellow leakage (%) Chip Caco-2:HT29-MTX E12,[5],0.01%
same,Lucifer Yellow leakage (%) Chip Caco-2,[6],0.02%
same,TW Caco-2 Papp (apparent permeability coefficient from A B),[7],1.85± 0.10 × 10-6 cm/sec
same,Chip Caco-2:HT29-MTX E12 Papp (apparent permeability coefficient from A B),[8],5.09 ± 0.06 × 10-6 cm/sec
same,Chip Caco-2 Papp (apparent permeability coefficient from A B),[9],7.11± 0.43 × 10-6 cm/sec
"INS: AlexaFluor647-labeled insulin (IS1-AF647-1, Nanocs)",Intracellular localization of INS,"[10]; INS and INS/TAT, 3 h, 100x, indicating endosomal uptake",localized inside the cytosol in punctual patterns
same,Cellular internalization of INS,"[10]; after 3 h, live cell imaging, with and without TAT",internalized into the enterocyte cell layer even without TAT
same,Barrier integrity,[11],not compromised significantly
same,INS transport across the cell barrier,[12],no INS transport across the cell barrier

# From publication PMC9500407, “Quantifying the transport of biologics across intestinal barrier models in real-time by fluorescent imaging” (Frontiers in Bioengineering and Biotechnology, 2022)
